Values of other authors in patent US11478524B1, “Methods and compositions for modulating complex mixtures by selective deletion chromatography” (UNIVERSITY OF SOUTH FLORIDA, priority 2017, dated 2022).
Where two headings read alike, the source gives them in different places.

In the case of Epigallocatechin-3-gallate [EGCG], the lifespan extension (under heat stress) is listed as 13%, the effect on longevity (under normal conditions) is listed as “little effect” and the lifespan extension (under oxidative stress) is listed as 178%.
